Test results as given in patent US5567724A, “Alkaline and acid phosphatase inhibitors in treatment of neurological disorders” (Cortex Pharmaceuticals, Inc., priority 1994, dated 1996).
Where a name gives a salt, the structure may show the parent alone. Read-outs that look alike come from different tables or passages of the source.

Legend:
[1] = Experimental: Human subjects diagnosed as suffering from AD are administered 50 mg of an arylimidothiazole derivative, such as levamisole, orally every eight hours for three days. The treatment is repeated every 14 days for a period of 6 months. […] A human patient diagnosed as suffering from Alzheimer's Disease is administered about 50 mg levamisole orally every eight hours for three days. The treatment is repeated every 14 days for a period of 6 months. […] Human subjects diagnosed as suffering from AD are administered 0.05 mg/kg of an arylimidothiazole derivative, such as levamisole, orally every day for a period of six months. […] A human patient diagnosed as suffering from Alzheimer's Disease is identified as having deteriorating symptoms of the disease. The patient is administered about 10 mg levamisole orally once per day for a period of six months.
[2] = system: calf intestinal alkaline phosphatase; test: Alkaline phosphatase assay with pNPP substrate, calf intestinal enzyme; type: biochemical; details: pNPP 5 mM, pH 5.5 lysis buffer
Experimental: (§1) Porcine kidney (0.01 U) and calf intestinal (0.002 U) alkaline phosphatases were assayed in the presence of levamisole (200 μM) or vanadate salt (5-500 μM) using pNPP (5 mM) as substrate. The assay was carried out in pH 5.5 lysis buffer. Each bar in FIG. 4 represents the mean of quadruplicates ± the standard deviation. The results of the experiment of Example 4 are illustrated in FIG. 4. […] The effect of treatment on humans with AD using arylimidothiazole derivatives having alkaline phosphatase inhibitory activity is described below in Examples 5-9.

[3] = system: rat embryonic hippocampal neurons; details: 50 μM β-amyloid 25-35
Experimental: To further determine the effect of alkaline phosphatase inhibitors on βamyloid peptide toxicity, rat embryonic hippocampal neurons in culture were exposed to 50 μM β-amyloid 25-35 in the presence of levamisole concentrations of 250 μM and 500 μM.

[4] = system: Porcine kidney alkaline phosphatase; test: Alkaline phosphatase assay with pNPP substrate, porcine kidney enzyme; type: biochemical; details: pNPP 5 mM, pH 5.5 lysis buffer
Experimental: as §1

[5] = system: HT4 neurotumor cells; test: β-amyloid peptide toxicity in HT4 neurotumor cells, LDH release; type: cell-based, rat; details: 100 μM inhibitor; 50 μM β-amyloid peptide 25-35 and 250 μM quisqualate; 24 hours after treatment
Experimental: HT4 neurotumor cells were treated with 50 μM β-amyloid peptide 25-35 and 250 μM quisqualate. The cells were also treated with 100 μM of the following alkaline phosphatase inhibitors: 1,10 phenanthroline, phenylalanine, IBMX, bromotetramisole, purine, and theophylline. The death of the neurons was determined by measuring LDH activity in the media 24 hours after treatment. The release of LDH from the cells into the surrounding media indicates cell death.
FIG. 1 illustrates the results of the study of Example 1. […] Cells subjected to no treatment had only a low level of LDH activity.

[6] = system: Dorsal root ganglion cells; test: Vinblastine-induced toxicity in dorsal root ganglion cells, live/dead staining; type: cell-based; details: Na,K-tartrate 500 μM; NGF 50 ng/ml; vinblastine 500 nM; 24 hours
Experimental: Dorsal root ganglion cells were treated with Nerve Growth Factor (NGF) (50 ng/ml), vinblastine (500 nM) and Na,K-tartrate (500 μM) for 24 hours. Following the treatment, the dorsal root ganglion cells were stained with ethidium bromide and fluorescein diacetate to stain dead and live cells, respectively.
FIG. 5 illustrates the results of the study of Example 16. Percentage cell viability is determined from the ratio of live cells to total cell number. Each bar in […] represents the mean of 3 wells ± the standard deviation.

[7] = system: Hippocampal neurons; test: Okadaic acid with β-amyloid on hippocampal neurons, LDH efflux; type: cell-based; details: 50 nM okadaic acid with 50 μM β-amyloid (β25-35), 24 hours, DME medium, 37° C.
Experimental: Hippocampal neurons were treated with 50 μM β-amyloid (β25-35)and 50 nM okadaic acid for 24 hours in Dulbeccois Modified Eagle's (DME) medium at 37° C. Following the 24-hour treatment period, an aliquot of media was removed for determination of LDH efflux from the neurons, which is an indicator of cell death. Each bar in FIG. 3, except the bar representing okadaic acid alone, represents the mean of 4 wells ± the standard deviation. The bar representing okadaic acid alone represents the mean of 2 wells ± the standard deviation.

Q: With `c1ccc([C@H]2CN3CCSC3=N2)cc1` [levamisole, (-)-(S)-2,3,5,6-tetrahydro-6-phenylimidoazide [2,1-b]thiazole monohydrochloride] as the compound, how does the “symptoms of AD” value ([1]; 50 mg orally every eight hours for three days, repeated every 14 days for 6 months) read?
A: lessened

Q: What about the “symptoms of AD” value ([1]; about 10 mg orally once per day for six months) of the same compound?
A: decrease

Q: What about the “Inhibition of calf intestinal alkaline phosphatase” value ([2]; levamisole 200 μM) of the same compound?
A: little effect

Q: And the “death of the neurons, as indicated by the release of LDH” value ([3]; levamisole 250 μM)?
A: reduced

Q: What about the LDH activity ([3]; levamisole 500 μM) of the same compound?
A: reduced

Q: What about the “Inhibition of porcine kidney alkaline phosphatase activity” value ([4]; levamisole 200 μM) of the same compound?
A: unexpectedly high

Q: For `CC(C)Cn1c(=O)n(C)c(=O)c2[nH]cnc21` [IBMX], which “LDH activity in the media (cell death)” value [5] is on record?
A: most effective compound tested

Q: Which results are given for `[O]=[V]([O-])([O-])[O-]` [vanadate]?
A: Inhibition of calf intestinal alkaline phosphatase ([2]; vanadate 100 μM): significantly inhibited; Inhibition of porcine kidney alkaline phosphatase activity ([4]; vanadate salt 5-500 μM): appear to inhibit

Q: For `O=C(O)C(O)C(O)C(=O)O` (single isomer, unassigned) [Na,K-tartrate], which “percentage cell viability in the presence of vinblastine” value [6] is on record?
A: significantly increased

Q: For `C=C1[C@@H](O)[C@@H]2O[C@]3(CC[C@H](/C=C/[C@@H](C)[C@@H]4CC(C)=C[C@@]5(O[C@H](C[C@@](C)(O)C(=O)O)CC[C@H]5O)O4)O3)CC[C@H]2O[C@@H]1[C@@H](O)C[C@H](C)[C@H]1O[C@@]2(CCCCO2)CC[C@H]1C` [okadaic acid], which “hippocampal neuronal injury (LDH efflux)” value [7] is on record?
A: causes hippocampal neuronal injury
